Data reported in patent publication US6569809B1, “Package-mix agricultural chemical compositions having improved stability” (Monsanto Company, priority 1999, dated 2003).

Experiments:
[1] = system: inutade (Polygonum longisetum); test: Greenhouse tank-mix study, herbicidal effectiveness (Table 1); type: in vivo; details: glyphosate 2160 g a.e./ha + flumioxazin 0 g/ha
Excerpt: (§1) Tank-mix studies have shown that addition of a relatively small amount of flumioxazin to glyphosate alleviates both the above-mentioned disadvantages. Data from a tank-mix study in a greenhouse illustrating the benefit of simultaneous application of glyphosate+flumioxazin over a higher rate of glyphosate alone are presented in Table 1. Herbicide rates are given in grams per hectare (g/ha); rates shown for glyphosate (which was applied in this study as the isopropylammonium salt) are expressed as acid equivalent (a.e.). Herbicidal effectiveness is measured as percent inhibition by comparison with untreated plants, based on visual assessment by a technician trained in the art of making such assessments, at four times, namely 3, 7, 20 and 27 days after treatment (DAT). Data are presented for two dicotyledonous weed species, “inutade” (Polygonum longisetum) and “tsuyukusa” (Commelina communis), that are known to tolerate high rates of glyphosate.

[2] = system: tsuyukusa (Commelina communis); test: as above; type: in vivo; details: glyphosate 2160 g a.e./ha + flumioxazin 0 g/ha
Excerpt: as §1

[3] = Adsorption of glyphosate by colloidal hydrophilic silica (HPLC of supernatant); type: physicochemical; details: 23% a.e. aqueous solution of glyphosate isopropylammonium salt, 20° C., 16 hours
Excerpt: Where the water-soluble active ingredient is a salt of the herbicide glyphosate, it was initially feared that addition of colloidal hydrophilic silica might reduce herbicidal effectiveness by adsorption of glyphosate to the silica. A test was therefore conducted to determine the degree of adsorption of glyphosate by the highest concentration of colloidal hydrophilic silica likely to be used in a composition of the invention, i.e. 5% by weight, and by even higher concentrations.
The procedure for this test is to add a weighed amount of Aerosil™ COK-84 colloidal hydrophilic silica to a measured volume of glyphosate isopropylammonium salt solution of known concentration (23% a.e. by weight) in a stoppered glass bottle and agitate gently at a temperature of 20° C. for 16 hours. The solution is then centrifuged to deposit the silica, leaving a clear supematant. The supernatant is analyzed for glyphosate by HPLC. The amount of adsorption is calculated from the reduction in glyphosate concentration in the supernatant solution by comparison with the initial concentration.

[4] = at 20° C.; cited from earlier work
[5] = Solubility of flumioxazin in organic solvents
[6] = Chemical degradation of flumioxazin in contact with aqueous salt solution

Row | Compound | percent inhibition ([1]; 3 DAT) [%] | percent inhibition ([1]; 7 DAT) [%] | percent inhibition ([1]; 20 DAT) [%] | percent inhibition ([1]; 27 DAT) [%] | percent inhibition ([2]; 3 DAT) [%] | percent inhibition ([2]; 7 DAT) [%] | percent inhibition ([2]; 20 DAT) [%] | percent inhibition ([2]; 27 DAT) [%] | glyphosate adsorption ([3]; silica concentration 10%) [%] | glyphosate adsorption ([3]; silica concentration 20%) [%] | specific gravity [4] | solubility in organic solvent ([5]; benzyl acetate) | solubility in organic solvent ([5]; phenylxylylethane) | rate of chemical degradation ([6]; benzyl acetate as the organic solvent, compared with phenylxylylethane) | chemical degradation ([6]; composition of the invention, aqueous phase mono(isopropylammonium) glyphosate pH about 4.5 to about 5, even at elevated temperatures) | chemical degradation ([6]; exposed to a concentrated aqueous salt solution such as a solution of glyphosate salt for prolonged periods) | rate of degradation ([6]; pH of the aqueous phase raised (addition of a base or dibasic salt of glyphosate))
1 | O=C(O)CNCP(=O)(O)O [glyphosate, N-phosphonomethylglycine] | 0 | 0 | 45 | 70 | 0 | 0 | 50 | 62 | 12 | 40 |  |  |  |  |  |  | 
2 | C#CCN1C(=O)COc2cc(F)c(N3C(=O)C4=C(CCCC4)C3=O)cc21 [flumioxazin, 2-[7-fluoro-3,4-dihydro-3-oxo-4-(2-propynyl)-2H-1,4-benzoxazin-6-yl]-4,5,6,7-tetrahydro-1H-isoindole-1,3(2H)-dione] |  |  |  |  |  |  |  |  |  |  | 1.51 | rather soluble | only very sparingly soluble | much more rapid | insignificant | undergo chemical degradation | significant increase
